From US7084169B2, “Aminoalkoxyindoles and methods of use” (Roche Palo Alto LLC, priority 2002, dated 2006) come the findings set out here.

The target of this test is T1, recombinant human 5-HT6 receptor (Homo sapiens, UniProt P50406).
T1 construct: expressed in transfected cells; membranes used
T1 sequence (P50406 whole entry): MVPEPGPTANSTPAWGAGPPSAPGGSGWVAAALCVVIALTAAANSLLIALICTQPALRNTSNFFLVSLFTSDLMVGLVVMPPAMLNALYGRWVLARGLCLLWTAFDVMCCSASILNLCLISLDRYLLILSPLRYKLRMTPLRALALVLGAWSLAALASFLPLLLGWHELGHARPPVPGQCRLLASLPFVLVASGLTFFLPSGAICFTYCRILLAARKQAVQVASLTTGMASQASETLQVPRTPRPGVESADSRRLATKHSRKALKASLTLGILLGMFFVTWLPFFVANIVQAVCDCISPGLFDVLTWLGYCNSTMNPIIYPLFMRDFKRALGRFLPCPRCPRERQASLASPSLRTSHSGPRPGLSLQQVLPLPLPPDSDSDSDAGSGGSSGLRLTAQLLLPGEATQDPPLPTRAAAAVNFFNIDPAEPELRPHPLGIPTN
The test is described as follows: Radioligand binding studies, competition for [3H]LSD binding in HEK293 cell membranes. The settings on record: [3H]LSD (5 nM), membranes of HEK293 cells stably expressing recombinant human 5-HT6 receptor, pH 7.4, 37° C., 60 min; read-out: 5-HT6 affinity values (pKi) (converted). As for the experimental part: The binding activity of compounds of this invention in vitro was determined as follows. Duplicate determinations of ligand affinity are made by competing for binding of [^3H]LSD in cell membranes derived from HEK293 cells stably expressing recombinant human 5-HT6 receptor.
All determinations were made in assay buffer containing 50 mM Tris-HCl, 10 mM MgSO4, 0.5 mM EDTA, 1 mM ascorbic acid, pH 7.4 at 37° C., in a 250 microliter reaction volume. Assay tubes containing [^3H] LSD (5 nM), competing ligand, and membrane were incubated in a shaking water bath for 60 min. at 37° C., filtered onto Packard GF-B plates (pre-soaked with 0.3% PEI) using a Packard 96 well cell harvester and washed 3 times in ice cold 50 mM Tris-HCl. Bound [^3H] LSD was determined as radioactive counts per minute using Packard TopCount.
Displacement of [3H]LSD from the binding sites was quantified by fitting concentration-binding data to a 4-parameter logistic equation:
[formula] where Hill is the Hill slope, [ligand] is the concentration of competing radioligand and IC50 is the concentration of radioligand producing half-maximal specific binding of radioligand. The specific binding window is the difference between the Bmax and the basal parameters.
As to `O=S(=O)(c1ccccc1Cl)c1c[nH]c2c(OCCN3CCCC3)cccc12` [3-(2-Chloro-benzenesulfonyl)-7-(2-pyrrolidin-1-yl-ethoxy)-1H-indole], the Ki was 0.00398 µM. In the case of `O=S(=O)(c1ccc(Cl)c(Cl)c1)c1c[nH]c2c(OCCN3CCCC3)cccc12` [3-(3,4-Dichloro-benzenesulfonyl)-7-(2-pyrrolidin-1-yl-ethoxy)-1H-indole], the Ki was 0.02 µM. With `O=S(=O)(c1cccc(Cl)c1)c1c[nH]c2c(OCCN3CCCC3)cccc12` [3-(3-Chloro-benzenesulfonyl)-7-(2-pyrrolidin-1-yl-ethoxy)-1H-indole], the Ki was 0.00501 µM. For `O=S(=O)(c1ccccc1)c1c[nH]c2c(OCCN3CCCC3)cccc12` [3-Benzenesulfonyl-7-(2-pyrrolidin-1-yl-ethoxy)-1H-indole] the value was 0.02 µM.
